Like-named read-outs stand apart in the source and are kept apart here.
Tests used:
[1] = target: FGR (Homo sapiens, UniProt P09769); assay: In vitro inhibition of tyrosine kinases; type: biochemical; settings: read-out: Mean % Inhibition at 1 μM Compound-I; 1 μM (568.9 ng/mL)
[2] = target: KDR (VEGFR-2) (Homo sapiens, UniProt P35968); assay: In vitro inhibition of tyrosine kinases; type: biochemical; settings: 300 nM (170.67 ng/mL)
[3] = Particle size distribution by laser diffraction light scattering; type: physicochemical; settings: API form HCl salt
Method: Particle size distribution can be analyzed using laser diffraction light scattering, e.g., with a Horiba LA-950 V2. Generic assumptions are made in setting conditions and the refractive index value. The distributions are volume based. Sample density is adjusted to a generic range of percent transmission on the blue LED light source. A small sample cell (filled with water) can be used rather than the flow through cell, to minimize sample quantity.
Particle size distribution was analyzed using laser diffraction light scattering with a Horiba LA-950 V2. Generic assumptions were made in setting conditions and the refractive index value. The distributions were volume based. Sample density was adjusted to a generic range of percent transmission on the blue LED light source. A small sample cell (filled with water) was used rather than the flow through cell, to minimize sample quantity.

[4] = 1- to 5-day PK with topical ocular Compound-I formulations (Example 5); type: in vivo, Dutch Belted rabbits; settings: for concentration at 0.5 h / concentration at 8 h / concentration at 24 h / concentration at 4 h / concentration at 2 h / concentration at 1 h: Dutch Belted, rabbit, topical
Method: On day 1, Groups 1, 2, 4-6, 8, 10, 11, 13, 15, and 17 received one dose (q.d.) for either one (1) or four (4) days.
Peripheral retina and peripheral choroid samples were assayed only for Groups 1-8, 12, 14, and 16 per study protocol.

[5] = system: human tumor xenographs; assay: Growth of human tumor xenographs in athymic mice; type: in vivo; settings: systemic administration
[6] = target: EPHA-1 (Homo sapiens, UniProt P21709); assay: In vitro inhibition of tyrosine kinases; type: biochemical; settings: read-out: Mean % Inhibition at 1 μM Compound-I; 1 μM (568.9 ng/mL)
Chain of EPHA-1 (P21709 26-976, species assumed): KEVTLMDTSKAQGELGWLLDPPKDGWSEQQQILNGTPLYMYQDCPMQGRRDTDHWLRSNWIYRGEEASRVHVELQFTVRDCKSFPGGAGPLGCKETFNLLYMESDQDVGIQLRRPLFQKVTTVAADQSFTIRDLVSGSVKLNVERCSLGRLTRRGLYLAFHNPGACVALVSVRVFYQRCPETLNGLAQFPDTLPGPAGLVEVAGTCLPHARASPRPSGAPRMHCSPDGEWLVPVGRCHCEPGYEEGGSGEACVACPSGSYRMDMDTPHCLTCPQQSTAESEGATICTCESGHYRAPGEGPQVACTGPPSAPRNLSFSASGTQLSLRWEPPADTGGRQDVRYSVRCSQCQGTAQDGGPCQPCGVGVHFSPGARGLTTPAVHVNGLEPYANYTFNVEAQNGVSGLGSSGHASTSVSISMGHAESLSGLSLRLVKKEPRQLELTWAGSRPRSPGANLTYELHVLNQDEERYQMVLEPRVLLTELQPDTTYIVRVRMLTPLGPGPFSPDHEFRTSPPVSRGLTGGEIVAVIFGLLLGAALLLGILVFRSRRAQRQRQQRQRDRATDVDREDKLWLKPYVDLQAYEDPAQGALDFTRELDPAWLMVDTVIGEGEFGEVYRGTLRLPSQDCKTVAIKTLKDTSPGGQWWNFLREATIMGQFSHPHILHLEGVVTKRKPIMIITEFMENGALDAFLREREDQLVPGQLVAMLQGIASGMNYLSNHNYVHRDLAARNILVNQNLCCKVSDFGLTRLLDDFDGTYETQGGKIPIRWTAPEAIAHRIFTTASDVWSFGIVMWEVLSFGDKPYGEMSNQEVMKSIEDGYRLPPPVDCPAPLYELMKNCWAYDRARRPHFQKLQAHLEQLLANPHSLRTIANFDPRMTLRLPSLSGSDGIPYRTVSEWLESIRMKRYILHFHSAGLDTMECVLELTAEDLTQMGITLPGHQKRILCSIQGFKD

[7] = target: FGFR-2 (Homo sapiens, UniProt P21802); assay: In vitro inhibition of tyrosine kinases; type: biochemical
Chain of FGFR-2 (P21802 22-821, species assumed): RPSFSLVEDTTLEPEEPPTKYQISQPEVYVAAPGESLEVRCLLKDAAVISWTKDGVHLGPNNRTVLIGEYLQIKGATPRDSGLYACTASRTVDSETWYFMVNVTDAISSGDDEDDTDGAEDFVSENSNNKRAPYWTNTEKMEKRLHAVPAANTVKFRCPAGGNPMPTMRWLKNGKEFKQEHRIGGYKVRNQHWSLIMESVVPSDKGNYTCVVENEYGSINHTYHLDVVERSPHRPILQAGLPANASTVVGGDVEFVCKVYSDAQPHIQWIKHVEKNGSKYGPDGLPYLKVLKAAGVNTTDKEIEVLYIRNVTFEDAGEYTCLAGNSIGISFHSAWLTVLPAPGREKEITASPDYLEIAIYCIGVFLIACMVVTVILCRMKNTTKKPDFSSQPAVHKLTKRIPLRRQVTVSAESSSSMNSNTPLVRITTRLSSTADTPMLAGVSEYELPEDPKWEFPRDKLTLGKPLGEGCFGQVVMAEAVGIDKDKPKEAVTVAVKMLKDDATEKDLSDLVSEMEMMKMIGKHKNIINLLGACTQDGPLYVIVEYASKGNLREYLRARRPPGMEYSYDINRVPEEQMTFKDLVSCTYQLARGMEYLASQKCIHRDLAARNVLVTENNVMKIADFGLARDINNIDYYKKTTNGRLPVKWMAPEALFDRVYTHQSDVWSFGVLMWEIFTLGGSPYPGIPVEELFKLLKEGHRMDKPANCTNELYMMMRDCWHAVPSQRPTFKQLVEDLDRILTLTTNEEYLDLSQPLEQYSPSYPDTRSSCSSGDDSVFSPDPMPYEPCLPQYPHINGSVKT

[8] = Concentrations of Compound-I in ocular fluids and tissues, 0.4% cyclodextrin solutions, 24-day study; type: in vivo, Dutch-Belted rabbits; settings: 0.4% cyclodextrin-based solutions, twice daily, day 24, 1 hour after first daily dose; for concentration at 1 h: Dutch-Belted, rabbit, topical, 0.4 % (4 mg/mL)
Method: The ocular solution of Compound-I comprising cyclodextrin was prepared and tested in different groups of animals.

[9] = excipient HPMC, roller speed low, media size 3 mm, particles under storage 21 days, RT
[10] = excipient Pluronic F-127, roller speed high, media size 0.8 mm
[11] = excipient Tyloxapol, milling not given
[12] = excipient Tyloxapol, roller speed high, media size 0.8 mm, particles under storage 6 days, 40° C.
[13] = excipient Tyloxapol, roller speed low, media size 3 mm
[14] = Groups 1, 5: one dose day 1, 0.5 hr post-dose
[15] = Groups 1, 5: one dose day 1, 24 hr post-dose

Chain of KDR (VEGFR-2) (P35968 20-1356): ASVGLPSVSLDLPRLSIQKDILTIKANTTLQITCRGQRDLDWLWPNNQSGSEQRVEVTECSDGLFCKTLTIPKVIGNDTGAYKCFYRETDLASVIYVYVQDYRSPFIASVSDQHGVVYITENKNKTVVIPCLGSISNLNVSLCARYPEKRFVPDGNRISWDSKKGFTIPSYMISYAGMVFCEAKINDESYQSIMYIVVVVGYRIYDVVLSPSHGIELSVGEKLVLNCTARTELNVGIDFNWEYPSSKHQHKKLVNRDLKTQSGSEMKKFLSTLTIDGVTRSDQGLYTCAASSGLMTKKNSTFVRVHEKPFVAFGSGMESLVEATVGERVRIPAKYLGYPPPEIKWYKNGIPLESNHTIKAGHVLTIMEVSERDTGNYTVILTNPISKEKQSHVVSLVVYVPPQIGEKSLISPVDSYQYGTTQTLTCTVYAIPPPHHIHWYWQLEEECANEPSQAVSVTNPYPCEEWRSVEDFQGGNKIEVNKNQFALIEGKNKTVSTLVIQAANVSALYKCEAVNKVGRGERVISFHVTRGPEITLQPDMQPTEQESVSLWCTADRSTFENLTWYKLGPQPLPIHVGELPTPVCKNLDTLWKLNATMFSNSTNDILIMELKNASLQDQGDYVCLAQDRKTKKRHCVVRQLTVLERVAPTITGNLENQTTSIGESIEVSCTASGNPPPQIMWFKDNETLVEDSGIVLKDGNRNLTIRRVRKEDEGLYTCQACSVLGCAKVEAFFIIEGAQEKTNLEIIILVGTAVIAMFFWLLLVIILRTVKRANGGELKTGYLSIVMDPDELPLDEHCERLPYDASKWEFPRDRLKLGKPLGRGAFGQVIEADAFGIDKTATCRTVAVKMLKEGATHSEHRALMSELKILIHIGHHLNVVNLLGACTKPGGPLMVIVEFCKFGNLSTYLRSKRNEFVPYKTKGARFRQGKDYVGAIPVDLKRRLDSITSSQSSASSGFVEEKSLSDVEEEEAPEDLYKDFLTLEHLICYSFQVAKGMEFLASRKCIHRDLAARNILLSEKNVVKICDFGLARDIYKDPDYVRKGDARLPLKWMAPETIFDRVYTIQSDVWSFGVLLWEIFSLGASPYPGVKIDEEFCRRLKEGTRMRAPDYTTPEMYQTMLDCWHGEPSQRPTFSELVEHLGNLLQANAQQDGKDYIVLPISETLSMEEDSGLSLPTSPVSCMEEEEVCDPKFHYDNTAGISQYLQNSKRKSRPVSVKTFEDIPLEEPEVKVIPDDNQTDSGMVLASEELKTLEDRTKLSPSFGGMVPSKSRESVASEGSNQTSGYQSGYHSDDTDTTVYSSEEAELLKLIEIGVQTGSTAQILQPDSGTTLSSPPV
Chain of FGR (P09769 whole entry, species assumed): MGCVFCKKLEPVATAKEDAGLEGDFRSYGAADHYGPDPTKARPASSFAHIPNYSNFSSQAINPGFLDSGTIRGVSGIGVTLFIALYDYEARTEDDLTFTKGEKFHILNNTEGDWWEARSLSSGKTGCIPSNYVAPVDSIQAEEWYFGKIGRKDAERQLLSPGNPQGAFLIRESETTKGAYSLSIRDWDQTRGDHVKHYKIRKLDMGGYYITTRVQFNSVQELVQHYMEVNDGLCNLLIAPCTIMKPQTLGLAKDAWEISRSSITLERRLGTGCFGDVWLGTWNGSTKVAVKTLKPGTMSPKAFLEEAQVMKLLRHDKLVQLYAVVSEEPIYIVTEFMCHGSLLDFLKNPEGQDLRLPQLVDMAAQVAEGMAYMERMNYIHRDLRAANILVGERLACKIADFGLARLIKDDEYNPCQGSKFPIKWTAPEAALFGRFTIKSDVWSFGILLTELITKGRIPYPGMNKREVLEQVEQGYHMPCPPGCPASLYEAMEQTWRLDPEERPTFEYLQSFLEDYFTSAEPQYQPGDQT

Cl.NC(=O)c1c(OCc2c(F)cc(Br)cc2F)nsc1NC(=O)NCCCCN1CCCC1 [Compound-I, 3-[(4-bromo-2,6-difluorophenyl)methoxy]-5-[[[[4-(1-pyrrolidinyl)butyl]amino]carbonyl]amino]-4-isothiazolecarboxamide hydrochloride]
inhibition at 1 µM [1]: 91%
Mean % Inhibition at 300 nM Compound-I [2]: completely inhibited
PSD (Particle Size Distribution) Mean [3, 9]: ~450 nm
PSD (Particle Size Distribution) Median [3, 9]: ~170 nm
PSD (Particle Size Distribution) Mean [3, 10]: ~100 nm
PSD (Particle Size Distribution) Median [3, 10]: ~100 nm
PSD (Particle Size Distribution) Mean [3, 11]: ~110 nm
PSD (Particle Size Distribution) Median [3, 11]: ~110 nm
PSD (Particle Size Distribution) Mean [3, 12]: ~120 nm
PSD (Particle Size Distribution) Median [3, 12]: ~110 nm
PSD (Particle Size Distribution) Mean [3, 13]: ~8500 nm
PSD (Particle Size Distribution) Median [3, 13]: ~6700 nm
concentration at 0.5 h ([4]; aqueous humor, 30 μL (bilateral), Groups 1, 5: one dose day 1, 0.5 hr post-dose, read-out: Average Concentration Aqueous Humor): 0.00162 µM
concentration at 8 h ([4]; aqueous humor, 30 μL (bilateral), Groups 1, 5: one dose day 1, 8 hr post-dose, read-out: Average Concentration Aqueous Humor): 0.00667 µM
concentration at 24 h ([4]; aqueous humor, 30 μL (bilateral), Groups 1, 5: one dose day 1, 24 hr post-dose, read-out: Average Concentration Aqueous Humor): 0.00303 µM
concentration at 4 h ([4]; aqueous humor, 30 μL bilateral (each eye), Group 5: one dose day 1, 4 hr post-dose, read-out: Average Concentration Aqueous Humor): 0.00911 µM
concentration at 2 h ([4]; aqueous humor, 30 μL bilateral (each eye), Groups 1, 5: one dose day 1, 2 hr post-dose, read-out: Average Concentration Aqueous Humor): 0.00862 µM
concentration at 1 h ([4]; aqueous humor, 30 μL bilateral, Groups 1, 5: one dose day 1, 1 hr post-dose, read-out: Average Concentration Aqueous Humor): 0.00108 µM
concentration at 1 h ([4]; central choroid, 30 μL (bilateral), q.d. groups (2,4,6,8,10,11,13,15,17), 4 days, 1 hr after day 5 morning dose, read-out: Average Concentration Central Choroid): 0.196 µM
concentration at 24 h ([4]; central choroid, 30 μL (bilateral, each eye), q.d. groups (2,6,8,11,13), 4 days, 24 hr after day 5 morning dose, read-out: Average Concentration Central Choroid): 0.319 µM
concentration at 24 h ([4]; central choroid, 30 μL per eye (bilateral), b.i.d. groups (3,7), 4 days, 24 hr after day 5 morning dose, read-out: Average Concentration Central Choroid): 0.283 µM
concentration at 24 h ([4]; central choroid, 30 μL, q.d. groups (2,6,8,11,13), 4 days, 24 hr after day 5 morning dose, read-out: Average Concentration Central Choroid): 0.218 µM
concentration at 8 h ([4]; central retina, 30 μL (bilateral), Groups 1, 5: one dose day 1, 8 hr post-dose, read-out: Average Concentration Central Retina): 0.0304 µM
concentration at 1 h ([4]; central retina, 30 μL (bilateral), q.d. groups (2,4,6,8,10,11,13,15,17), 4 days, 1 hr after day 5 morning dose, read-out: Average Concentration Central Retina): 0.0363 µM
concentration at 24 h ([4]; central retina, 30 μL (bilateral), q.d. groups (2,6,8,11,13), 4 days, 24 hr after day 5 morning dose, read-out: Average Concentration Central Retina): 0.0241 µM
concentration at 4 h ([4]; central retina, 30 μL bilateral (each eye), Group 5: one dose day 1, 4 hr post-dose, read-out: Average Concentration Central Retina): 0.0299 µM
concentration at 2 h ([4]; central retina, 30 μL bilateral (each eye), Groups 1, 5: one dose day 1, 2 hr post-dose, read-out: Average Concentration Central Retina): 0.0354 µM
concentration at 24 h ([4]; central retina, 30 μL per eye (bilateral), b.i.d. groups (3,7), 4 days, 24 hr after day 5 morning dose, read-out: Average Concentration Central Retina): 0.0292 µM
concentration at 8 h ([4]; central retina, 30 μL per eye (bilateral), q.d. groups (2,6), 4 days, 8 hr after day 5 morning dose, read-out: Average Concentration Central Retina): 0.038 µM
concentration at 24 h ([4]; central retina, 30 μL per eye (bilateral), q.d. groups (2,6,8,11,13), 4 days, 24 hr after day 5 morning dose, read-out: Average Concentration Central Retina): 0.0246 µM
concentration at 1 h ([4]; central retina, 30 μL, b.i.d. groups (3,7,9,12,14,16), 4 days, 1 hr after day 5 morning dose, read-out: Average Concentration Central Retina): 0.0407 µM
concentration at 4 h ([4]; cornea, 30 μL (bilateral), Group 5: one dose day 1, 4 hr post-dose, read-out: Average Concentration Cornea): 14.1 µM
concentration at 2 h ([4]; cornea, 30 μL bilateral (each eye), Groups 1, 5: one dose day 1, 2 hr post-dose, read-out: Average Concentration Cornea): 28.1 µM
concentration at 1 h ([4]; cornea, 30 μL bilateral, Groups 1, 5: one dose day 1, 1 hr post-dose, read-out: Average Concentration Cornea): 16.9 µM
concentration at 4 h ([4]; peripheral choroid, 30 μL (bilateral), Group 5: one dose day 1, 4 hr post-dose, read-out: Average Concentration Peripheral Choroid): 0.0775 µM
concentration at 8 h ([4]; peripheral choroid, 30 μL (bilateral), Groups 1, 5: one dose day 1, 8 hr post-dose, read-out: Average Concentration Peripheral Choroid): 0.0874 µM
concentration at 24 h ([4]; peripheral choroid, 30 μL (bilateral), Groups 1, 5: one dose day 1, 24 hr post-dose, read-out: Average Concentration Peripheral Choroid): 0.088 µM
concentration at 1 h ([4]; peripheral choroid, 30 μL bilateral, Groups 1, 5: one dose day 1, 1 hr post-dose, read-out: Average Concentration Peripheral Choroid): 0.0473 µM
concentration at 24 h ([4]; peripheral choroid, 30 μL per eye (bilateral), b.i.d. groups (3,7), 4 days, 24 hr after day 5 morning dose, read-out: Average Concentration Peripheral Choroid): 0.892 µM
concentration at 1 h ([4]; peripheral choroid, 30 μL per eye (bilateral), b.i.d. groups (3,7,12,14,16), 4 days, 1 hr after day 5 morning dose, read-out: Average Concentration Peripheral Choroid): 0.765 µM
concentration at 8 h ([4]; peripheral retina, 30 μL (bilateral), Groups 1, 5: one dose day 1, 8 hr post-dose, read-out: Average Concentration Peripheral Retina): 0.0333 µM
concentration at 24 h ([4]; peripheral retina, 30 μL (bilateral), Groups 1, 5: one dose day 1, 24 hr post-dose, read-out: Average Concentration Peripheral Retina): 0.0151 µM
concentration at 1 h ([4]; peripheral retina, 30 μL (bilateral), q.d. groups (2,4,6,8), 4 days, 1 hr after day 5 morning dose, read-out: Average Concentration Peripheral Retina): 0.0961 µM
concentration at 4 h ([4]; peripheral retina, 30 μL bilateral (each eye), Group 5: one dose day 1, 4 hr post-dose, read-out: Average Concentration Peripheral Retina): 0.0312 µM
concentration at 0.5 h ([4]; peripheral retina, 30 μL bilateral, Groups 1, 5: one dose day 1, 0.5 hr post-dose, read-out: Average Concentration Peripheral Retina): 0.0227 µM
concentration at 8 h ([4]; peripheral retina, 30 μL per eye (bilateral), q.d. groups (2,6), 4 days, 8 hr after day 5 morning dose, read-out: Average Concentration Peripheral Retina): 0.0508 µM
concentration at 1 h ([4]; peripheral retina, 30 μL, b.i.d. groups (3,7,12,14,16), 4 days, 1 hr after day 5 morning dose, read-out: Average Concentration Peripheral Retina): 0.108 µM
Average Concentration Central Choroid ([4]; Group 5: one dose day 1, 4 hr post-dose): <LLOQ
Average Concentration Central Choroid [4, 14]: <LLOQ
Average Concentration Peripheral Choroid [4, 14]: <LLOQ
Average Concentration Central Choroid ([4]; Groups 1, 5: one dose day 1, 1 hr post-dose): <LLOQ
Average Concentration Central Choroid ([4]; Groups 1, 5: one dose day 1, 2 hr post-dose): <LLOQ
Average Concentration Central Choroid ([4]; Groups 1, 5: one dose day 1, 8 hr post-dose): <LLOQ
Average Concentration Central Choroid [4, 15]: <LLOQ
Average Concentration Central Retina [4, 15]: <LLOQ
Growth of human tumor xenographs [5]: inhibit
inhibition at 1 µM [6]: 81%
inhibition at 0.3 µM ([7]; read-out: Mean % Inhibition at 300 nM Compound-I, 300 nM (170.67 ng/mL)): 103%
inhibition at 1 µM ([7]; read-out: Mean % Inhibition at 1 μM Compound-I, 1 μM (568.9 ng/mL)): 99%
Corneal concentration, range over solutions [8]: 6.49 to 30 µM
concentration at 1 h ([8]; aqueous humor, read-out: Aqueous humor concentration, range over solutions): 0.002 to 0.007 µM
concentration at 1 h ([8]; central retina, read-out: Central retina concentration, range over solutions): 0.0531 to 0.124 µM

— US10183014B2, “Ocular formulations for drug-delivery and protection of the anterior segment of the eye” (PanOptica, Inc., priority 2014, dated 2019)
